Measured values: ChEMBL document CHEMBL1201862, “PubChem BioAssay data set” (2004)
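Following 48 hours of exposure in 96-well plates, responses at five concentrations were used to interpolate endpoints linearly. GI50 is the concentration that inhibits growth by half.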 Activity calls are given as the source filed them. Cut-off read from the data, not from the text of the source: active = GI50 up to about 1.1 µM and inactive = higher.

How the values were obtained:
Test in all cases: NCI tumour cell line growth inhibition, 48 h
HT-29 = test system: HT-29
EKVX = test system: EKVX
M14 = test system: M14
SNB-75 = test system: SNB-75
SK-OV-3 = test system: SK-OV-3
DMS-273 = test system: DMS-273
HOP-18 = test system: HOP-18
SNB-19 = test system: SNB-19
CCRF-CEM = test system: CCRF-CEM
HOP-92 = test system: HOP-92
SK-MEL-28 = test system: SK-MEL-28
K562 = test system: K562
UACC-257 = test system: UACC-257
LOX IMVI = test system: LOX IMVI
ACHN = test system: ACHN
LXFL 529 = test system: LXFL 529
DU-145 = test system: DU-145
BT-549 = test system: BT-549
MCF7 = test system: MCF7
NCI/ADR-RES = test system: NCI/ADR-RES

Measured: GI50

COCCOCOc1ccc(OCOCCOC)c2c1C(=O)c1ccccc1C2=O
inactive: HT-29 37.2 µM | EKVX 38.3 µM | M14 > 100 µM | SNB-75 99.3 µM | SK-OV-3 > 100 µM | DMS-273 49.1 µM | HOP-18 77.1 µM | SNB-19 > 87.9 µM | CCRF-CEM 27 µM | HOP-92 > 79.6 µM | SK-MEL-28 > 100 µM | K562 24.7 µM | UACC-257 42.8 µM | LOX IMVI 27.9 µM | ACHN 62.7 µM

COc1cc2cccc(NC(=O)c3cc(OC)c(OC)c(OC)c3Br)c2cc1OC
inactive: HT-29 21.8 µM | EKVX 21.1 µM | M14 11.3 µM | SNB-75 26.9 µM | SK-OV-3 22.5 µM | HOP-18 20.6 µM | LXFL 529 2.52 µM | SNB-19 14.2 µM | CCRF-CEM 4.56 µM | SK-MEL-28 16.1 µM | K562 12.5 µM | UACC-257 3.85 µM | ACHN 11.5 µM

COc1ccc(-c2ccccc2)c2[nH]c3c(c12)CCNC3=O
inactive: HT-29 > 100 µM | EKVX > 100 µM | M14 > 100 µM | SNB-75 > 100 µM | DMS-273 > 100 µM | LXFL 529 > 100 µM | SNB-19 > 100 µM | CCRF-CEM > 100 µM | HOP-92 > 100 µM | K562 > 100 µM | UACC-257 > 100 µM | LOX IMVI > 100 µM

C[N+](C)(C)CC(=O)N/N=C/c1oc(-c2c(O)ccc3ccccc23)c(-c2c(O)ccc3ccccc23)c1[N+](=O)[O-]
inactive: HT-29 13.2 µM | DU-145 15.4 µM | EKVX 21.9 µM | M14 17.3 µM | SNB-75 14.7 µM | SK-OV-3 14.2 µM | HOP-18 15.9 µM | LXFL 529 14.8 µM | SNB-19 28.2 µM | CCRF-CEM 15.4 µM | HOP-92 12.7 µM | SK-MEL-28 21.3 µM | K562 12.6 µM | UACC-257 18.5 µM | LOX IMVI 11.6 µM | ACHN 3.31 µM

Cn1nc(-c2ccccc2NC(=O)C(F)(F)F)c(=O)n(C)c1=S
inactive: HT-29 25.8 µM | EKVX 31.3 µM | M14 19.8 µM | SNB-75 5.89 µM | SK-OV-3 > 100 µM | DMS-273 24.4 µM | LXFL 529 21.7 µM | SNB-19 38.8 µM | CCRF-CEM 32.6 µM | HOP-92 15.2 µM | SK-MEL-28 12 µM | K562 15.9 µM | LOX IMVI 29.9 µM | ACHN 24.5 µM

CN1C2(c3ccccc3)C(C(=O)c3ccccc3)=C(C(=O)c3ccccc3)C1(c1ccccc1)c1c(-c3ccccc3)sc(-c3ccccc3)c12
inactive: HT-29 > 100 µM | EKVX > 100 µM | M14 > 100 µM | SNB-75 > 100 µM | SK-OV-3 > 100 µM | DMS-273 > 100 µM | LXFL 529 > 100 µM | SNB-19 > 100 µM | CCRF-CEM > 100 µM | HOP-92 > 100 µM | SK-MEL-28 > 100 µM | K562 > 100 µM | UACC-257 > 100 µM | LOX IMVI > 100 µM | ACHN > 100 µM

Cc1ccccc1NC(=O)C(=O)CC(=O)c1c(C)[n+]([O-])c2ccccc2[n+]1[O-]
inactive: HT-29 > 100 µM | EKVX > 100 µM | M14 > 100 µM | SNB-75 40 µM | SK-OV-3 > 100 µM | DMS-273 > 100 µM | HOP-18 > 100 µM | LXFL 529 > 100 µM | SNB-19 > 100 µM | SK-MEL-28 > 100 µM | K562 > 100 µM | UACC-257 16 µM | ACHN > 100 µM

CCCCCCCCCCCCCCC1OC(=O)c2ccccc21 (configuration not stated)
inactive: HT-29 35.8 µM | EKVX 39.9 µM | M14 > 100 µM | SNB-75 > 100 µM | SK-OV-3 > 100 µM | HOP-18 > 100 µM | LXFL 529 77.1 µM | SNB-19 > 100 µM | CCRF-CEM 32.7 µM | SK-MEL-28 > 100 µM | K562 30.6 µM | UACC-257 52.7 µM | LOX IMVI 86.1 µM | ACHN 43.5 µM

CC(=O)n1c2c(c(=O)n1-c1ccccc1)[S+]([O-])CCC2 (configuration not stated)
inactive: HT-29 69.5 µM | EKVX > 95.7 µM | M14 49.7 µM | SNB-75 51.4 µM | SK-OV-3 > 100 µM | DMS-273 23.2 µM | LXFL 529 28.7 µM | SNB-19 > 100 µM | CCRF-CEM 7.5 µM | SK-MEL-28 > 100 µM | K562 26.7 µM | UACC-257 46.7 µM | LOX IMVI > 58.3 µM | ACHN 46.8 µM

Cc1ccc(-n2c(C)nc3c2C(=O)c2ccccc2C3=O)cc1
inactive: HT-29 11.9 µM | EKVX > 100 µM | M14 58.2 µM | SNB-75 34.4 µM | SK-OV-3 > 100 µM | DMS-273 9.86 µM | LXFL 529 9.84 µM | SNB-19 71.9 µM | CCRF-CEM 11.1 µM | HOP-92 49.4 µM | SK-MEL-28 52.6 µM | K562 5.86 µM | UACC-257 19.1 µM | LOX IMVI 7.98 µM | ACHN 27.9 µM

CS(=O)(=O)CC1=Nc2nnc(CCCCCCCc3nnc4n3C(=O)C(CS(C)(=O)=O)=N4)n2C1=O
inactive: HT-29 > 100 µM | EKVX > 100 µM | M14 > 100 µM | SNB-75 > 100 µM | SK-OV-3 > 100 µM | HOP-18 > 100 µM | LXFL 529 > 100 µM | SNB-19 > 100 µM | CCRF-CEM > 100 µM | HOP-92 > 100 µM | SK-MEL-28 > 100 µM | K562 > 100 µM | UACC-257 > 100 µM | LOX IMVI > 100 µM | ACHN > 100 µM

O=[N+]([O-])c1ccc(-c2cnc3ccccn23)cc1
inactive: HT-29 > 100 µM | EKVX > 100 µM | M14 > 100 µM | SNB-75 30.6 µM | SK-OV-3 62.5 µM | DMS-273 > 100 µM | LXFL 529 > 100 µM | SNB-19 > 100 µM | CCRF-CEM > 100 µM | SK-MEL-28 > 100 µM | K562 > 100 µM | UACC-257 > 100 µM | LOX IMVI > 100 µM | ACHN > 100 µM

CN(C)c1ccc(/C=C(\NC(=O)c2ccccc2)C(=O)Nc2cccc(C(=O)NCCCO)c2)cc1
inactive: HT-29 > 100 µM | DU-145 > 100 µM | EKVX > 100 µM | M14 > 100 µM | SNB-75 > 100 µM | SK-OV-3 > 100 µM | SNB-19 > 100 µM | CCRF-CEM > 100 µM | BT-549 > 100 µM | HOP-92 > 100 µM | SK-MEL-28 > 100 µM | MCF7 > 100 µM | K562 > 100 µM | UACC-257 > 100 µM | LOX IMVI > 100 µM | ACHN > 100 µM | NCI/ADR-RES > 100 µM
